# Laboratory results taken from patent US20240284907A1, “NOVEL DERIVATIVES OF NON-CODED AMINO ACIDS AND THEIR USE AS HERBICIDES” (FortePhest LTD., priority 2021, published 2024).
# Legend:
# [1] = tested on: Seeds of Lettuce R. (Super-Jericho); assay: Filter paper bioassay with lettuce seeds: germination and early plant development, Minimal Effective Concentration (MEC); assay type: in vivo; conditions: lettuce seeds on filter paper, 0 to 1 mmol/l, visually assessed after 6 days
# Text: Materials: Seeds of Lettuce R. (Super-Jericho, non-sterilized) were obtained from Ben Shahar Moshe Ltd., 99% purity. The test compounds listed in the Table 2 below were synthetized de novo or purchased from different vendors.
# Filter Paper Bioassays with Lettuce seeds: The protocol is following Bertin et al. 2009 and Movellan et al. 2014 with specified modifications as described below.
# Seeds were placed on Whatman no. 1 filter paper (Whatman, Middlesex, U.K.) in Petri dishes (10 seeds per plate) with 2.0 ml of aqueous solution of a test material in concentration ranged from 0 (control) to 1 mmol/l were placed in a tray tilted at 45[…]. The trays were kept in dark for 48 hours and then transferred to the growth chamber with 6/18 dark/light cycle for 4 days. Each experiment was performed at least with two repeats.
# The development of plants' radicle and shoots were visually assessed 6 days after the beginning of the test to determine Minimal Effective Concentration (MEC) of a test material. In the context of the invention, MEC is defined as the lowest concentration level of a test material that caused deviation (absence of germination or malformation of radicle or shoots) from the plant's development in the Control group.
# [2] = tested on: Romaine lettuce (Lactuca sativa L.) plants; assay: Post-emergence herbicidal activity on potted Romaine lettuce plants (soil or foliar application); assay type: in vivo; conditions: lettuce at 2 to 3 leaves, two weeks after treatment
# Method: The tests were performed on Romaine lettuce (Lactuca sativa L.) plants at the stage 2 to 3 leaves. The plants were grown in mini-pots packed with soil, dimensions 2×2×5 cm, one plant per mini-pot. Test compounds were dissolved in 0.1% aqueous solution water solution of Silwet adjuvant to final concentrations ranging from 0 (Control) to 0.0001%. The test compounds were applied on soil (1 ml per pot) or foliar with airbrush (0.1 ml per pot). Each concentration was tested on 20 plants. Two weeks after the treatment the herbicidal effects of the respective test material were visually evaluated (aboveground part and roots. Then the aboveground part of the plants was neatly cut and weighed (wet weight) to assess the growth inhibition caused by the test compound. The growth inhibition (GI) was calculated as following: […]
# Where Mt and Mc are median wet weight of treated and control plants, respectively. In the context of the invention, the herbicidal effect was assessed by concentration of the compound causing more than 85% of Growth Inhibition (GI) or irreversible damage of the plants (Table 3). Herbicidal activity of selected DHAAs is summarized in Table 4 (soil application) and Table 5 (Foliar application).
Compound,"Score (activity score of Minimal Effective Concentration, MEC) [1]",Score (test material causing more than 85% of Growth Inhibition or irreversible plant damage) ([2]; soil application),Score (test material causing more than 85% of Growth Inhibition or irreversible plant damage) ([2]; foliar application)
"2-(2-chloro-1,3-thiazol-4-yl)-2,2-difluoroethan-1-ol [compound 5724]",Moderate (0.1 mM),strong (0.01 to 0.05),–
"2-(5-chlorothiophen-3-yl)-2,2-difluoroacetic acid [compound 5625]",Strong (0.01 mM),strong (0.01 to 0.05),strong (0.01 to 0.05)
"O=C(O)Cc1cc(Br)nc(Br)c1 [compound 689, 2-(2,6-dibromopyridin-4-yl)acetic acid]",Moderate (0.1 mM),moderate (0.5),–
"NC(=O)CCCc1cc(Cl)sc1Cl [compound 5600, 4-(2,5-dichlorothiophen-3-yl)butanamide]",Weak (Higher than 0.1 mM),moderate (0.5),–
"CC(=O)NCCc1cc(Cl)sc1Cl [compound 5629, N-[2-(2,5-dichlorothiophen-3-yl)ethyl]acetamide]",–,moderate (0.5),–
"CC(=O)NCCc1nc(Cl)sc1Cl [compound 5650, N-[2-(2,5-dichloro-1,3-thiazol-4-yl)ethyl]acetamide]",–,moderate (0.5),–
"COC(=O)C(Cl)c1cc(Cl)sc1Cl (stereo not shown) [compound 5656, methyl 2-chloro-2-(2,5-dichlorothiophen-3-yl)acetate]",–,moderate (0.5),–
"CCOC(=O)Cc1nc(Br)sc1C [compound 5661, ethyl 2-(2-bromo-5-methyl-1,3-thiazol-4-yl)acetate]",Moderate (0.1 mM),moderate (0.5),moderate (0.5)
"O=C(Cc1cc(Cl)sc1Cl)OCc1ccccc1 [compound 5669, benzyl 2-(2,5-dichlorothiophen-3-yl)acetate]",–,strong (0.01 to 0.05),strong (0.01 to 0.05)
"CONCCc1cc(Cl)sc1Cl [compound 5670, 2-(2,5-dichlorothiophen-3-yl)-N-methoxyethan-1-amine]",Moderate (0.1 mM),moderate (0.5),–
"N=C(N)NCc1cccc(Br)n1 [compound 6636, N-[(6-bromopyridin-2-yl)methyl]guanidine]",Moderate (0.1 mM),–,–
"NCCCc1ccnc(Br)c1 [compound 6649, 3-(2-bromopyridin-4-yl)propan-1-amine]",Moderate (0.1 mM),–,–
"O=C(O)C(F)(F)c1cccc(-c2ccc(C(F)(F)F)cc2F)n1 [compound 6659, 2,2-difluoro-2-{6-[2-fluoro-4-(trifluoromethyl)phenyl]pyridin-2-yl}acetic acid]",Moderate (0.1 mM),–,–
"O=C(O)C(F)(F)c1nc(F)c(F)cc1F [compound 6660, difluoro(3,5,6-trifluoropyridin-2-yl)acetic acid]",Moderate (0.1 mM),–,–
"O=C(O)C(F)c1nc(F)c(F)cc1F (stereo not shown) [compound 6661, 2-fluoro-2-(3,5,6-trifluoropyridin-2-yl)acetic acid]",Moderate (0.1 mM),–,–
"NC(Cc1cccc(Br)c1)C(=O)O (stereo not shown) [compound 6669, 2-amino-3-(3-bromophenyl)propanoic acid]",Moderate (0.1 mM),–,–
"O=C(O)C(F)(F)c1ccc(F)c(Br)n1 [compound 6681, (6-bromo-5-fluoropyridin-2-yl)(difluoro)acetic acid]",very strong,–,–
"O=C(O)C(F)(F)c1ccc(C(F)(F)F)c(Br)n1 [compound 6682, [6-bromo-5-(trifluoromethyl)pyridin-2-yl](difluoro)acetic acid]",Strong (0.01 mM),–,–
"(2,6-dibromopyridin-4-yl)-2,2-difluoroacetic acid [compound 6632]",Weak (Higher than 0.1 mM),–,–
(2-bromopyridin-4-yl)(oxo)acetic acid [compound 6626],Moderate (0.1 mM),–,–
(2E)-3-(2-bromo-strong-nitropyridin-4-yl)prop-2-enoic acid [compound 6608],Moderate (0.1 mM),–,–
"(2E)-3-(3-chloro-1H-1,2,4-triazol-5-yl)prop-2-enoic acid [compound 5621]",Weak (Higher than 0.1 mM),–,–

Compound,"Score (activity score of Minimal Effective Concentration, MEC) [1]",Score (test material causing more than 85% of Growth Inhibition or irreversible plant damage) ([2]; soil application),Score (test material causing more than 85% of Growth Inhibition or irreversible plant damage) ([2]; foliar application)
(2E)-3-(5-chlorothiophen-2-yl)prop-2-enoic acid [compound 5607],Moderate (0.1 mM),–,–
(6-bromopyridin-2-yl)methyl 2-(2-chlorothiophen-3-yl)acetate [compound 5802],Moderate (0.1 mM),–,–
N-(6-bromopyridin-2-yl)guanidine hydrochloride [compound 6637],Weak (Higher than 0.1 mM),–,–
"N-[2-(2,5-dichlorothiophen-3-yl)ethyl]-N′-(2-hydroxypropyl)guanidine [compound 5727]",Moderate (0.1 mM),–,–
"N-{2-[3-(2,5-dichlorothiophen-3-yl)propoxy]phenyl}guanidine [compound 5732]",Moderate (0.1 mM),–,–
"N′-[2-(2,5-dichlorothiophen-3-yl)ethyl]-N-(3-hydroxypropyl)guanidine [compound 5725]",Moderate (0.1 mM),–,–
"[2,5-bis(trifluoromethyl)-1,3-thiazol-4-yl](difluoro)acetic acid [compound 5744]",Moderate (0.1 mM),–,–
"[2-(2,5-dichlorothiophen-3-yl)ethyl]hydrazine [compound 5705]",Moderate (0.1 mM),–,–
"[3-(2-bromo-1,3-thiazol-4-yl)propyl]phosphonic acid [compound 5774]",Weak (Higher than 0.1 mM),–,–
"[(2,5-dichlorothiophen-3-yl)methyl]hydrazine [compound 5610]",Weak (Higher than 0.1 mM),–,–
"[(2-bromo-1,3-thiazol-4-yl)(difluoro)methyl]phosphonic acid [compound 5737]",Weak (Higher than 0.1 mM),–,–
"dichloro-1,3-thiazole-4-carboxamide [compound 5616]",Moderate (0.1 mM),–,–
"difluoro[4-(trifluoromethyl)-1,3-thiazol-2-yl]acetic acid [compound 5760]",Moderate (0.1 mM),–,–
"ethyl 2-(2-amino-5-chloro-1,3-thiazol-4-yl)-2,2-difluoroacetate [compound 5729]",Weak (Higher than 0.1 mM),–,–
"ethyl 2-(2-chlorooxazol-4-yl)-2,2-difluoroacetate [compound 5783]",Moderate (0.1 mM),–,–
ethyl difluoro[5-(trifluoromethyl)thiophen-3-yl]acetate [compound 5707],Weak (Higher than 0.1 mM),–,–
"methyl 2-(2-bromopyridin-4-yl)-2,2-difluoroacetate [compound 6629]",Moderate (0.1 mM),–,–
naphthalene-2-carboxylic acid [compound 691],Weak (Higher than 0.1 mM),–,–
"propyl[2-(1H-1,2,4-triazol-3-yl)ethyl]amine [compound 5660]",Weak (Higher than 0.1 mM),–,–
"sodium 2-(2-chloro-1,3-thiazol-5-yl)-2,2-difluoroacetate [compound 5721]",Moderate (0.1 mM),–,–
"{2-[(6-amino-9H-purin-9-yl)methoxy]ethoxy}methyl(2-chloro-1,3-thiazol-4-yl)acetate [compound 5752]",Moderate (0.1 mM),–,–
